Source: ChEMBL document CHEMBL4725402, “Discovery of thiapyran-pyrimidine derivatives as potential EGFR inhibitors” (Bioorg Med Chem, 2020)

Assays:
A549 = assay: Antiproliferation activity against human A549 cells assessed as reduction in cell viability measured after 72 hrs by MTT assay; format: functional, cell-based; conditions: A549, 72 h
NCI-H1975 = assay: Antiproliferation activity against human NCI-H1975 cells harboring EGFR T790M/L858R mutation assessed as reduction in cell viability measured after 72 hrs by MTT assay; format: functional, cell-based; conditions: NCI-H1975, 72 h
HeLa = assay: Antiproliferation activity against human HeLa cells assessed as reduction in cell viability measured after 72 hrs by MTT assay; format: functional, cell-based
MCF7 = assay: Antiproliferation activity against human MCF7 cells assessed as reduction in cell viability measured after 72 hrs by MTT assay; format: functional, cell-based; conditions: MCF7, 72 h
L02 = assay: Cytotoxicity against human L02 cells assessed as reduction in cell viability measured after 72 hrs by MTT assay; format: cell-based; conditions: L02, 72 h
[1] = Selectivity index, ratio of IC50 for human L02 cells to IC50 for human A549 cells assessed as reduction in cell viability measured after 72 hrs by MTT assay; format: toxicity; conditions: L02 cells versus A549 cells, read-out: Ratio IC50
Homo sapiens = species on record: Homo sapiens; assay: Inhibition of PI3K (unknown origin) at 1 uM relative to control
[2] = target: Vascular endothelial growth factor receptor 2 (Homo sapiens) (UniProt P35968); assay: Inhibition of KDR (unknown origin) at 1 uM relative to control
Sequence of Vascular endothelial growth factor receptor 2 (Homo sapiens) (P35968 whole entry): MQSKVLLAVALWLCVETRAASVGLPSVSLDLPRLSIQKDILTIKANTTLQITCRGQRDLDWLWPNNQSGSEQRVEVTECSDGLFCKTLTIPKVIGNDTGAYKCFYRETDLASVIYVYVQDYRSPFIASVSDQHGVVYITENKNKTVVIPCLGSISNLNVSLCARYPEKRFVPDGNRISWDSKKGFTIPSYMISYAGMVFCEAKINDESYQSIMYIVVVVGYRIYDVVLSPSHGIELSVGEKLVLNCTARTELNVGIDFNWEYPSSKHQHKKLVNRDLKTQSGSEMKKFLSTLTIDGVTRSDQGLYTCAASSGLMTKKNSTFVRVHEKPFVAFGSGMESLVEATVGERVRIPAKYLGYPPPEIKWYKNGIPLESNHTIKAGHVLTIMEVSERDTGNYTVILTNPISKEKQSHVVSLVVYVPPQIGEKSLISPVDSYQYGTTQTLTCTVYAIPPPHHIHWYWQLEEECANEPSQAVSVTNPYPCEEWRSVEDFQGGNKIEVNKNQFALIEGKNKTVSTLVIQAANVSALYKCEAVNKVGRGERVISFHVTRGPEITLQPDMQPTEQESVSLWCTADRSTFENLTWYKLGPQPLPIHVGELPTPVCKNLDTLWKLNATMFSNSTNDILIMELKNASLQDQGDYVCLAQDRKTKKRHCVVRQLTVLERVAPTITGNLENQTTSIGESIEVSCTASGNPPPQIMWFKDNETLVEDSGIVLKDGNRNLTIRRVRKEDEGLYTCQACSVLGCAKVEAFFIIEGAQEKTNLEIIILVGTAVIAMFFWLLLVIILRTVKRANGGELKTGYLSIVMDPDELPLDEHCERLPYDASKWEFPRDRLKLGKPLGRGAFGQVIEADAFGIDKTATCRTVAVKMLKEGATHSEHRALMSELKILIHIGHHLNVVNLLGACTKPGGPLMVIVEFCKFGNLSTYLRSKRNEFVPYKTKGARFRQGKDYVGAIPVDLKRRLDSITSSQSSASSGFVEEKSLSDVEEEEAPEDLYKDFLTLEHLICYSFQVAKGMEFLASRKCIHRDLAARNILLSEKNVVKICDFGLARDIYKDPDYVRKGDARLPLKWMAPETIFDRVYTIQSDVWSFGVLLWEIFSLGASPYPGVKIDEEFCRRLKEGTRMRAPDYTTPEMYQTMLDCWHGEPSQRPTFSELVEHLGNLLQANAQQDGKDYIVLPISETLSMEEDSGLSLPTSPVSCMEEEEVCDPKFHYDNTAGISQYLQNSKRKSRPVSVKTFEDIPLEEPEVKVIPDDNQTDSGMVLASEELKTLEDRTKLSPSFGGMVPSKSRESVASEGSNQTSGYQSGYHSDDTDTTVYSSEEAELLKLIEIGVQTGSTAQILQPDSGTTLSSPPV

[3] = target: Epidermal growth factor receptor (Homo sapiens, UniProt P00533); assay: Inhibition of wild type EGFR (unknown origin) using FAM-labelled peptide as substrate incubated for 10 mins in presence of ATP by Kinase Glo luminescence assay
Sequence of Epidermal growth factor receptor (Homo sapiens, UniProt P00533) (P00533 whole entry): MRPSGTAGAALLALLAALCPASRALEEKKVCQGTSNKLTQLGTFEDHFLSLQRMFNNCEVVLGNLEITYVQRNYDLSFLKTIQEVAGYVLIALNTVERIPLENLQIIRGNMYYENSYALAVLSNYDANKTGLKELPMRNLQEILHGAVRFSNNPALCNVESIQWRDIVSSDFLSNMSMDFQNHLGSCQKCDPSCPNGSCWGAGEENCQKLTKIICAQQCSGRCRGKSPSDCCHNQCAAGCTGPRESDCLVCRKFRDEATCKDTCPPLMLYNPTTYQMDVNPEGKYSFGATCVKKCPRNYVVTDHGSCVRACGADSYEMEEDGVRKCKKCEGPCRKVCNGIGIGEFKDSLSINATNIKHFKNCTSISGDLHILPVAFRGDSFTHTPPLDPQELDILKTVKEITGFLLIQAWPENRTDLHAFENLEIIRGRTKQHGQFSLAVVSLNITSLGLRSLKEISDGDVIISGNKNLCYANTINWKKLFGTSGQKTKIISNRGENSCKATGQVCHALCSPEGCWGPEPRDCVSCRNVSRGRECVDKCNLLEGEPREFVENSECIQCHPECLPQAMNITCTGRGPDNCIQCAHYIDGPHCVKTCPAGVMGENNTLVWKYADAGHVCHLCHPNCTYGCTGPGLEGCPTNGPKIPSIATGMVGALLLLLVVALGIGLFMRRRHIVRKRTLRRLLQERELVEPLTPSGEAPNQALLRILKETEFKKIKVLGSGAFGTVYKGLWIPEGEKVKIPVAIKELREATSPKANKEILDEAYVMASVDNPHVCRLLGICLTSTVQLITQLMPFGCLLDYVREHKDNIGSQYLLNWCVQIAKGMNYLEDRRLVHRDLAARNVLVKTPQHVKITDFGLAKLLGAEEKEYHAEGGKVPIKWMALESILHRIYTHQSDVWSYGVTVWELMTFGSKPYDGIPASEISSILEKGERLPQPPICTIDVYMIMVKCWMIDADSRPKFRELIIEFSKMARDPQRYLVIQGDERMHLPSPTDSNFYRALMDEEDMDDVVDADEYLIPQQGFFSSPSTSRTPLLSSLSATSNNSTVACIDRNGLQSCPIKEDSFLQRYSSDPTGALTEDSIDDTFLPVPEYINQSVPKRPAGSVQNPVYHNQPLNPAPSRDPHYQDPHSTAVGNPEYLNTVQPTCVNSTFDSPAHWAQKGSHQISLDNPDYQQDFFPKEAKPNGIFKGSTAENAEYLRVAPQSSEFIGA

[4] = target: Epidermal growth factor receptor (Homo sapiens, UniProt P00533, T790M); assay: Inhibition of EGFR T790M mutant (unknown origin) using FAM-labelled peptide as substrate incubated for 10 mins fin presence of ATP by Kinase Glo luminescence assay
Sequence of Epidermal growth factor receptor (Homo sapiens, UniProt P00533, T790M) (P00533 25-1210 T790M limits assumed): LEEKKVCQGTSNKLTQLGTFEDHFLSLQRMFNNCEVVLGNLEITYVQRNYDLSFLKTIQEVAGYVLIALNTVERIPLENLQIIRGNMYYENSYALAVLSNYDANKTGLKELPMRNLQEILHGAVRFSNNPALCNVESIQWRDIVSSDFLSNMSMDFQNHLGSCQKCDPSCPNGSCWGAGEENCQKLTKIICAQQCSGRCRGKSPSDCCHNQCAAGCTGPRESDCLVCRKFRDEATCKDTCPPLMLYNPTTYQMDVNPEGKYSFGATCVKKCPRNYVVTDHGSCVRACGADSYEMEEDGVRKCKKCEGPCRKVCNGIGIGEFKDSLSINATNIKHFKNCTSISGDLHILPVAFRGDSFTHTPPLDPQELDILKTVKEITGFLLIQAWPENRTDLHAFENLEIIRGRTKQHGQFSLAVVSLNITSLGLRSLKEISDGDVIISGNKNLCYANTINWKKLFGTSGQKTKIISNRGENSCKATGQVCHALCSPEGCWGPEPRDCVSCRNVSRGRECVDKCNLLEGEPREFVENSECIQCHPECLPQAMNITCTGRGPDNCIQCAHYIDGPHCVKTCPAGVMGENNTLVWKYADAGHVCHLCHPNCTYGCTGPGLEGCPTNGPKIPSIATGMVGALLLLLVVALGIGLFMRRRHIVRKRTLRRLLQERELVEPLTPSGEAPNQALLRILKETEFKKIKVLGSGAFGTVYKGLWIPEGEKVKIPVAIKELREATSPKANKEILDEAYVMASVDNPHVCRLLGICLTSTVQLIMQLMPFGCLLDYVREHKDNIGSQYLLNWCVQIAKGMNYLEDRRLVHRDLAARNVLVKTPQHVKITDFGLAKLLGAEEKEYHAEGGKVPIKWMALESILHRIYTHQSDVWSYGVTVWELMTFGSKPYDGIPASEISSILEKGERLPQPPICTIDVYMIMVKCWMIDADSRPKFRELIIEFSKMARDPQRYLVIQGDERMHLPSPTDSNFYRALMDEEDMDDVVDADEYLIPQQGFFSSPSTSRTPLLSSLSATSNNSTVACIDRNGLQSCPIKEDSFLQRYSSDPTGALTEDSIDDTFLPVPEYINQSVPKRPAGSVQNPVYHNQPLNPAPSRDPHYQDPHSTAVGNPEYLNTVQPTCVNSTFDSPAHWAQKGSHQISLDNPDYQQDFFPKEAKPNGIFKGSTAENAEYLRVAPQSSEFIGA

Row | SMILES | IC50 (A549) [µM] | IC50 (NCI-H1975) [µM] | IC50 (HeLa) [µM] | IC50 (MCF7) [µM] | IC50 (L02) [µM] | selectivity ratio at 72 h [1] | inhibition (Homo sapiens) [%] | inhibition [2] [%] | IC50 [3] [µM] | IC50 [4] [µM]
1 | C/C=C/C(=O)Nc1cccc(Oc2nc(Nc3cccc(C#N)c3)nc3c2CSCC3)c1 | 17.2 | 28.1 | 12.8 | 21.4 | > 50 | > 2.91 | – | – | – | –
2 | C=C(C)C(=O)Nc1cccc(Oc2nc(Nc3ccn(C)n3)nc3c2CSCC3)c1 | 46.9 | – | > 50 | > 50 | > 50 | > 1.06 | – | – | – | –
3 | C/C=C/C(=O)Nc1cccc(Oc2nc(Nc3ccn(C)n3)nc3c2CSCC3)c1 | > 50 | 35.9 | > 50 | 40 | > 50 | – | – | – | – | –
4 | CC(C)=CC(=O)Nc1cccc(Oc2nc(Nc3cccc(C#N)c3)nc3c2CSCC3)c1 | 36.9 | – | 29.2 | > 50 | > 50 | > 1.36 | – | – | – | –
5 | COc1cccc(Nc2nc3c(c(Oc4cccc(NC(=O)C=C(C)C)c4)n2)CSCC3)c1 | 19.8 | 21.9 | 19.1 | > 50 | > 50 | > 2.52 | – | – | – | –
6 | C/C=C/C(=O)Nc1cccc(Oc2nc(Nc3ccc(OC)cc3)nc3c2CSCC3)c1 | 22.2 | – | > 50 | 24.3 | > 50 | > 2.25 | – | – | – | –
7 | C=C(F)C(=O)Nc1cccc(Oc2nc(Nc3ccn(C)n3)nc3c2CSCC3)c1 | > 50 | 36.3 | > 50 | > 50 | 47.8 | < 0.96 | – | – | – | –
8 | Oc1cccc(-c2nc(N3CCOCC3)c3oc4ncccc4c3n2)c1 | – | – | – | – | – | – | 99.8 | 2.4 | – | –
9 | CC(C)/C=C/C(=O)Nc1cccc(Oc2nc(Nc3ccn(C)n3)nc3c2CSCC3)c1 | 33.5 | – | 40.1 | > 50 | > 50 | > 1.49 | – | – | – | –
10 | CC/C=C/C(=O)Nc1cccc(Oc2nc(Nc3cccc(OC)c3)nc3c2CSCC3)c1 | 17.2 | 10.8 | 27.2 | 24.2 | > 50 | > 2.9 | – | – | – | –
11 | CCC/C=C/C(=O)Nc1cccc(Oc2nc(Nc3ccc(OC)cc3)nc3c2CSCC3)c1 | 11.9 | 18.9 | 12.8 | > 50 | > 50 | > 4.21 | – | – | – | –
12 | COc1ccc(Nc2nc3c(c(Oc4cccc(NC(=O)/C=C/C(C)C)c4)n2)CSCC3)cc1 | 25.9 | – | 22.9 | > 50 | > 50 | > 1.93 | – | – | – | –
13 | C=CC(=O)Nc1cccc(Oc2nc(Nc3ccn(C)n3)nc3c2CSCC3)c1 | 18.6 | – | 25.8 | > 50 | > 50 | > 2.7 | – | – | – | –
14 | C=CC(=O)Nc1cccc(Oc2nc(Nc3cccc(OC)c3)nc3c2CSCC3)c1 | 10.1 | 9.64 | 28.9 | > 50 | 48.9 | – | – | – | – | –
15 | CC/C=C/C(=O)Nc1cccc(Oc2nc(Nc3cccc(C#N)c3)nc3c2CSCC3)c1 | 10.1 | 17.2 | 31.8 | 15.8 | > 50 | > 4.95 | – | – | – | –
16 | CCC/C=C/C(=O)Nc1cccc(Oc2nc(Nc3ccn(C)n3)nc3c2CSCC3)c1 | 8.19 | 13.6 | 17 | 22.6 | > 50 | > 6.1 | – | – | > 1 | > 1

Row | SMILES | IC50 (A549) [µM] | IC50 (NCI-H1975) [µM] | IC50 (HeLa) [µM] | IC50 (MCF7) [µM] | IC50 (L02) [µM] | selectivity ratio at 72 h [1] | inhibition (Homo sapiens) [%] | inhibition [2] [%] | IC50 [3] [µM] | IC50 [4] [µM]
17 | CCC/C=C/C(=O)Nc1cccc(Oc2nc(Nc3cccc(OC)c3)nc3c2CSCC3)c1 | 11.8 | 11.9 | 33.8 | 32 | > 50 | > 4.23 | – | – | – | –
18 | CC(C)/C=C/C(=O)Nc1cccc(Oc2nc(Nc3cccc(C#N)c3)nc3c2CSCC3)c1 | 35.9 | – | 22.8 | 29.6 | > 50 | > 1.39 | – | – | – | –
19 | COc1ccc(Nc2nc3c(c(Oc4cccc(NC(=O)/C=C/C(C)C)c4)n2)CSCC3)cn1 | 24.2 | – | 27.8 | 37.1 | > 50 | > 2.06 | – | – | – | –
20 | C/C=C/C(=O)Nc1cccc(Oc2nc(Nc3ccc(OC)nc3)nc3c2CSCC3)c1 | 8.04 | 13.9 | 16.5 | 21.1 | > 50 | > 6.22 | – | – | > 1 | > 1
21 | C/C=C/C(=O)Nc1cccc(Oc2nc(Nc3cccc(OC)c3)nc3c2CSCC3)c1 | 21.1 | 12.5 | 13.8 | 23.4 | > 50 | > 2.37 | – | – | – | –
22 | COc1ccc(Nc2nc3c(c(Oc4cccc(NC(=O)C=C(C)C)c4)n2)CSCC3)cc1 | 26.9 | – | 19.1 | > 50 | > 50 | > 1.86 | – | – | – | –
23 | CC/C=C/C(=O)Nc1cccc(Oc2nc(Nc3ccc(OC)cc3)nc3c2CSCC3)c1 | 20.1 | 17.2 | 27.2 | 31.4 | > 50 | > 2.49 | – | – | – | –
24 | COc1cccc(Nc2nc3c(c(Oc4cccc(NC(=O)/C=C/C(C)C)c4)n2)CSCC3)c1 | 25.3 | 25.1 | > 50 | 21.8 | > 50 | > 1.98 | – | – | – | –
25 | C=CC(=O)Nc1cccc(Oc2nc(Nc3ccc(OC)nc3)nc3c2CSCC3)c1 | 14.6 | 13.9 | 26.2 | 17.2 | > 50 | > 3.43 | – | – | – | –
26 | CC/C=C/C(=O)Nc1cccc(Oc2nc(Nc3ccc(OC)nc3)nc3c2CSCC3)c1 | 13.1 | 13.2 | 31.2 | 31.5 | > 50 | > 3.81 | – | – | – | –
27 | COc1ccc(Nc2nc3c(c(Oc4cccc(NC(=O)C=C(C)C)c4)n2)CSCC3)cn1 | 16.8 | – | 29.2 | 22.2 | > 50 | > 2.97 | – | – | – | –
28 | CC/C=C/C(=O)Nc1cccc(Oc2nc(Nc3ccn(C)n3)nc3c2CSCC3)c1 | 36.8 | – | > 50 | > 50 | > 50 | > 1.36 | – | – | – | –
29 | C=C(F)C(=O)Nc1cccc(Oc2nc(Nc3cccc(OC)c3)nc3c2CSCC3)c1 | 29.6 | 26.1 | 44.8 | > 50 | 41.2 | 1.39 | – | – | – | –
30 | CCC/C=C/C(=O)Nc1cccc(Oc2nc(Nc3ccc(OC)nc3)nc3c2CSCC3)c1 | 10.8 | 17.9 | 15.3 | 26.8 | > 50 | > 4.62 | – | – | – | –
31 | CC(C)=CC(=O)Nc1cccc(Oc2nc(Nc3ccn(C)n3)nc3c2CSCC3)c1 | 44.2 | – | > 50 | > 50 | > 50 | > 1.13 | – | – | – | –
